ChEMBL document CHEMBL3421609, “Sandensone A, a novel sesquiterpenoid from the Formosan soft coral Sinularia sandensis” (2015)
Activity calls are given as the source filed them. No cut-off for these calls is given here.

Legend:
P388 = experiment: Cytotoxicity against mouse P388 cells by MTT assay; type: functional; conditions: read-out: ED50 (the source's name)
HT-29 = experiment: Cytotoxicity against human HT-29 cells by MTT assay; type: functional; conditions: read-out: ED50 (the source's name)
A549 = experiment: Cytotoxicity against human A549 cells by MTT assay; type: functional; conditions: read-out: ED50 (the source's name)
Human betaherpesvirus 5 [1] = experiment: Antiviral activity against human cytomegalovirus infected in HEL cells assessed as reduction in virus replication at 1 ug/ml; type: functional, organism-based
Human betaherpesvirus 5 [2] = experiment: Antiviral activity against human cytomegalovirus infected in HEL cells assessed as reduction in virus replication; type: functional; conditions: Human betaherpesvirus 5, HEL; read-out: ED50 (the source's name)

EC50 (Human betaherpesvirus 5 [2]) [µg/mL]	Compound	EC50 (P388) [nM]	EC50 (HT-29) [nM]	EC50 (A549) [nM]	Activity (Human betaherpesvirus 5 [1])
> 50	C=C/C(C)=C/C/C=C(\C)[C@H]1C(=O)C=C(C)[C@@H]1O	22000	38000	> 50000	inactive
	CO[C@H](C(=O)[C@@H](O)[C@@H](C)O)[C@@H]1Cc2cc3cc(O[C@H]4C[C@@H](O[C@@H]5C[C@@H](O)[C@H](O)[C@@H](C)O5)[C@H](O)[C@@H](C)O4)c(C)c(O)c3c(O)c2C(=O)[C@H]1O[C@H]1C[C@@H](O[C@@H]2C[C@@H](O)[C@@H](O[C@@H]3C[C@](C)(O)[C@H](O)[C@@H](C)O3)[C@@H](C)O2)[C@H](O)[C@@H](C)O1 [PLICAMYCIN]	50	70	60	
